Legend:
[1] = biological target: T1, USP25 (His-USP25^a.a.157-706 recombinant protein, deubiquitinase catalytic domain) (Homo sapiens, UniProt Q9UHP3); experiment: Screening of USP25 inhibitors with Ubiquitin-Rhodamine 110; conditions: 10 μM compound, 33.3 nM His-USP25^157-706, 133.3 nM Ubiquitin-Rhodamine 110
T1 sequence (Q9UHP3 157-706): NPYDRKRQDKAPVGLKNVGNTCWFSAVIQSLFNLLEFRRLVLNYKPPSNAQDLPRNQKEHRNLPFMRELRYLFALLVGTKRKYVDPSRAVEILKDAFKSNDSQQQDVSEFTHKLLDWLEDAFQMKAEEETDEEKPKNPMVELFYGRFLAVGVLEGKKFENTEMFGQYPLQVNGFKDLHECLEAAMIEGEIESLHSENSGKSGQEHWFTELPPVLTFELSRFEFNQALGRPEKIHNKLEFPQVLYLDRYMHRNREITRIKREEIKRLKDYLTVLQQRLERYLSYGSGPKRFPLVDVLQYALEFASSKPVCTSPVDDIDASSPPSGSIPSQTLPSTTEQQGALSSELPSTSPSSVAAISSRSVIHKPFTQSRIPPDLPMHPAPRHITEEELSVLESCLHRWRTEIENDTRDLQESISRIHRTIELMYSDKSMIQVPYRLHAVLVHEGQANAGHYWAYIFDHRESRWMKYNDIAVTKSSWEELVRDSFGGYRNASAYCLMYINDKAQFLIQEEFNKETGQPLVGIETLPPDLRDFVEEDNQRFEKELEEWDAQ
Excerpt: And then, the fluorescence intensity of Ubiquitin-Rhodamine 110 was detected by a Tecan Spark multifunctional microplate reader (Tecan, Switzerland).

[2] = system: Mouse microglial cell line BV2; experiment: LPS-induced inflammatory response in microglia cell line BV2 (real-time PCR of Il1b); format: cell-based; conditions: 10 μM compound
Experimental: Mouse microglial cell line BV2 was treated with 25 ng/mL lipopolysaccharide (LPS) and 10 μM MZ3, respectively.
After the cells were treated for 24 hours, RNAs were extracted by TRIzol (Thermo Fisher Scientific), and then reverse-transcribed using Rever Tra Ace qPCR RT Kit (TOYOBO), and real-time fluorescence quantification PCR was performed using FastStart Universal SYBR Green Master (Roche) to detect the transcription levels of inflammation-related gene Il1b.
After the cells were treated for 12 hours, RNAs were extracted by TRIzol (Thermo Fisher Scientific), and then reverse-transcribed using Rever Tra Ace qPCR RT Kit (TOYOBO), and real-time fluorescence quantification PCR was performed using FastStart Universal SYBR Green Master (Roche) to detect the transcription levels of inflammation-related gene Il1b.
Mouse microglial cell line BV2 was treated with 100 ng/mL lipopolysaccharide (LPS) and 10 μM MZ24, MZ25, MZ26, MZ28, MZ29 and MZ31, respectively.

[3] = system: microglia of C57BL/6 mice; experiment: LPS-induced inflammatory response of primary microglia (real-time PCR of Il1b and Il6); format: cell-based; conditions: 50 ng/mL LPS, 10 μM compound, 6 hours
Experimental: After the cells were treated for 6 hours, RNAs were extracted by TRIzol (Thermo Fisher Scientific), and then reverse-transcribed using Rever Tra Ace qPCR RT Kit (TOYOBO), and real-time fluorescence quantification PCR was performed using FastStart Universal SYBR Green Master (Roche) to detect the transcription levels of inflammation-related genes Il1b and Il6.
After the cells were treated for 6 hours, RNAs were extracted by TRIzol (Thermo Fisher Scientific), and then reverse-transcribed using Rever Tra Ace qPCR RT Kit (TOYOBO), and real-time fluorescence quantification PCR was performed using FastStart Universal SYBR Green Master (Roche) to detect the transcription levels of inflammation-related gene Il1b.

Row | Structure (SMILES) | deubiquitinase activity of USP25 (Ubiquitin-Rhodamine 110 fluorescence intensity) [1] | further results
1 | OCCNCc1cc(Br)ccc1OCc1cc(C(F)(F)F)cc(C(F)(F)F)c1 [MZ1] | can significantly inhibit | 
2 | OCCNCc1ccc(OC(F)F)c(OCc2cc(C(F)(F)F)cc(C(F)(F)F)c2)c1 [MZ3] | can significantly inhibit | LPS-induced Il1b expression ([2]; BV2, 25 ng/mL LPS, 24 hours): can significantly reduce
3 | COc1cc(OC)c(CN2CCN(C)CC2)c(OCc2cc(C(F)(F)F)cc(C(F)(F)F)c2)c1 [MZ4] | can significantly inhibit | 
4 | COc1cc(OC)c(CNc2ccc(Br)cn2)c(OCc2cc(C(F)(F)F)cc(C(F)(F)F)c2)c1 [MZ5] | can significantly inhibit | 
5 | CN1CCN(Cc2ccc(OC(F)F)c(OCc3cc(C(F)(F)F)cc(C(F)(F)F)c3)c2)CC1 [MZ23] | can significantly inhibit | LPS-induced Il1b expression ([2]; BV2, 50 ng/mL LPS, 12 hours): can significantly reduce
6 | COc1cc(OC)c(CN2CCN(CCO)CC2)c(OCc2cc(C(F)(F)F)cc(C(F)(F)F)c2)c1 [MZ24] | can significantly inhibit | LPS-induced Il1b expression ([2]; BV2, 100 ng/mL LPS, 12 hours): can significantly reduce
7 | OCCN1CCN(Cc2ccc(OC(F)F)c(OCc3cc(C(F)(F)F)cc(C(F)(F)F)c3)c2)CC1 [MZ25] | can significantly inhibit | LPS-induced Il1b expression ([2]; BV2, 100 ng/mL LPS, 12 hours): can significantly reduce
8 | CCN(CC)CCNCc1ccc(OC(F)F)c(OCc2cc(C(F)(F)F)cc(C(F)(F)F)c2)c1 [MZ26] | can significantly inhibit | LPS-induced Il1b expression ([2]; BV2, 100 ng/mL LPS, 12 hours): can significantly reduce
9 | CCN(CC)CCNCc1ccc(OC(F)F)c(OCc2cc(F)c(F)cc2F)c1 [MZ27] | can significantly inhibit | 
10 | CN1CCN(Cc2ccc(OC(F)F)c(OCc3cc(F)c(F)cc3F)c2)CC1 [MZ28] | can significantly inhibit | LPS-induced Il1b expression ([2]; BV2, 100 ng/mL LPS, 12 hours): can significantly reduce
11 | OCCN1CCN(Cc2ccc(OC(F)F)c(OCc3cc(F)c(F)cc3F)c2)CC1 [MZ29] | can significantly inhibit | LPS-induced Il1b expression ([2]; BV2, 100 ng/mL LPS, 12 hours): can significantly reduce
12 | Fc1cc(F)c(COc2cc(CN3CCc4ccccc4C3)ccc2OC(F)F)cc1F [MZ30] | can significantly inhibit | 
13 | Fc1cc(COc2ccc(Br)cc2CNCCc2c[nH]c3ccccc23)ccc1C(F)(F)F [MZ31] | can significantly inhibit | LPS-induced Il1b expression ([2]; BV2, 100 ng/mL LPS, 12 hours): can significantly reduce
14 | Cc1ccc(OCc2ccc(F)c(C(F)(F)F)c2)c(CN2CCN(CCO)CC2)c1 [MZ32] | can significantly inhibit | 
15 | CCN1CCN(Cc2cc(Br)ccc2OCc2ccc(F)c(C(F)(F)F)c2)CC1 [MZ33] | can significantly inhibit | 
16 | CCN(CC)CCNCc1cc(Br)ccc1OCc1cc(F)c(F)cc1F [MZ34] | can significantly inhibit | LPS-induced Il1b expression ([2]; BV2, 50 ng/mL LPS, 12 hours): can significantly reduce
17 | OCc1cc(Br)ccc1OCc1ccc(F)c(C(F)(F)F)c1 [MZ35] | can significantly inhibit | 
18 | Fc1ccc(COc2ccc(Br)cc2CN(CCC2CCN(Cc3ccccc3)CC2)Cc2cc(Br)ccc2OCc2ccc(F)c(C(F)(F)F)c2)cc1C(F)(F)F [MZ36] | can significantly inhibit | 

Row | Structure (SMILES) | deubiquitinase activity of USP25 (Ubiquitin-Rhodamine 110 fluorescence intensity) [1] | further results
19 | Fc1ccc(COc2ccc(Br)cc2CNCCC2CCN(Cc3ccccc3)CC2)cc1C(F)(F)F [MZ37] | can significantly inhibit | 
20 | O=Cc1cc(Br)ccc1OCc1cc(F)c(F)cc1F [MZ38] | can significantly inhibit | 
21 | O=Cc1cc(Br)ccc1OCc1ccc(F)c(C(F)(F)F)c1 [MZ39, 5-bromo-2-(4-fluoro-3-(trifluoromethyl)benzyloxy)benzaldehyde] | can significantly inhibit | 
22 | O=Cc1ccc(OCc2ccc(F)c(C(F)(F)F)c2)c(OC(F)F)c1 [MZ40] | can significantly inhibit | 
23 | COc1cc(OC)c(C=O)c(OCc2cc(C(F)(F)F)cc(C(F)(F)F)c2)c1 [MZ41] | can significantly inhibit | 
24 | O=Cc1ccc(OC(F)F)c(OCc2cc(C(F)(F)F)cc(C(F)(F)F)c2)c1 [MZ42] | can significantly inhibit | 
25 | COc1cc(OC)c(C=O)c(OCc2ccc(F)c(C(F)(F)F)c2)c1 [MZ43] | can significantly inhibit | 
26 | OCCNCc1ccccc1OCc1ccc(F)c(C(F)(F)F)c1 [MZ66] | can significantly inhibit | 
27 | OCCNCc1ccccc1OCc1cc(C(F)(F)F)cc(C(F)(F)F)c1 [MZ67] | can significantly inhibit | 
28 | COc1cc(OC)c(CNCCO)c(OCc2ccc(F)c(C(F)(F)F)c2)c1 [MZ68] | can significantly inhibit | 
29 | COc1cc(OC)c(CNCCO)c(OCc2cc(C(F)(F)F)cc(C(F)(F)F)c2)c1 [MZ69] | can significantly inhibit | 
30 | COc1ccc(CNCCO)cc1OCc1ccc(F)c(C(F)(F)F)c1 [MZ71] | can significantly inhibit | 
31 | COc1ccc(CNCCO)cc1OCc1cc(C(F)(F)F)cc(C(F)(F)F)c1 [MZ72] | can significantly inhibit | 
32 | OCCNCc1ccccc1NCc1ccc(F)c(C(F)(F)F)c1 [MZ74] | can significantly inhibit | 
33 | OCCNCc1ccccc1NCc1cccc(OC(F)(F)F)c1 [MZ75] | can significantly inhibit | LPS-induced Il1b expression [3]: can significantly reduce
34 | OCCNCc1cc(Br)ccc1NCc1ccc(F)c(C(F)(F)F)c1 [MZ76] | can significantly inhibit | LPS-induced Il1b expression [3]: can significantly reduce
35 | OCCNCc1cc(Br)ccc1NCc1cccc(OC(F)(F)F)c1 [MZ77] | can significantly inhibit | LPS-induced Il1b expression [3]: can significantly reduce
36 | NCc1cc(Br)ccc1OCc1ccc(F)c(C(F)(F)F)c1 [XMU1, (5-bromo-2-((4-fluoro-3-(trifluoromethyl)benzyl)oxy)phenyl)methanamine] | can significantly inhibit | LPS-induced Il1b expression [3]: can significantly reduce

From patent US12655088B2, “Compound for treating Alzheimer's disease” (XIAMEN UNIVERSITY, priority 2020, dated 2026)
